Measurements published in article PMC5643462, “Encrypted Antimicrobial Peptides from Plant Proteins” (Scientific Reports, 2017).
Where two headings read alike, the source gives them in different places. No end group written: not given here.

Experiments:
human red blood cells = experiment: Cytotoxicity: hemolysis of human red blood cells; type: cell-based
Method: The cytotoxicity of the selected IAPS was performed using human red blood cells in strict accordance with relevant guidelines and regulations (Ethical committee – UnB # 1.939.989). Different concentrations of IAPs (128 µM–0.5 µM) were incubated with a final concentration of 2.5 × 10^5 red blood cells.mL^−1. Briefly, 100 µL of red blood cells was incubated with 100 µL of different concentrations of each IAP, prepared in PBS, for 30 minutes at 37 °C, with constant shaking at 120 rpm. PBS and Triton X-100 0.1% (v/v) were used as negative and positive controls, respectively. After incubation, the solution was centrifuged at 900 × g for five minutes followed by transferring 50 µL of the supernatant to flat-bottom polystyrene 96-well micro plates containing 50 µL of PBS. Microplate reading was performed at a BioTek Multireader, using a wavelength of 540 nm. All tests were performed in 3 biological replicates, composed of 3 biological repetitions each. The obtained data was subtracted by the negative control and relative to the positive control, defined as 100% lysis.

[1] = tested on: Moniliophthora perniciosa basidiospores; experiment: Inhibition of M. perniciosa basidiospore germination; type: cell-based; settings: 1 × 10^6 basidiospores mL^−1, one hour with peptide (256-0.5 µM), 24 °C, counted after 4 hours on agar slides, biological triplicates
Method: The antimicrobial potential of T. cacao IAPs for inhibiting M. perniciosa basidiospores was evaluated. Briefly, 1 × 10^6 basidiospores mL^−1 were incubated for one hour with different concentrations of T. cacao IAPs (256-0.5 µM), at 24 °C, in a final volume of 100 µL. Autoclaved dH20 was used as a control. After incubation, 3 droplets of 10 µL each were placed in a slide coated with agar (1.2% (w/v)). Slides were incubated for 4, 24 and 48 hours at 24 °C. Slides were visualized using a DMRXA light microscope (Leica). Approximately 150–200 basidiospores per droplet from each time point were counted and compared to the control condition, which was defined as 100% germination. All experiments were performed in biological triplicates, with 3 technical repetitions each.

[2] = Far-UV circular dichroism, helix percentage in buffer and with LUVs; type: physicochemical; settings: room temperature, from [θ]222 nm, * = β-sheet structure; for %Hel 2:1 DMPC/DMPG: 40 μM peptide + 2 mM 2:1 DMPC:DMPG LUVs (50 fold excess); for %Hel 2:1 DMPC/DMPG / %Hel DMPC: pH 7.4 buffer; for %Hel DMPC: 40 μM peptide + 2 mM DMPC LUVs (50 fold excess); for %Hel buffer: 40 μM peptide in 20 mM sodium phosphate, 150 mM NaCl, pH 7.4
Method: DMPC and 2:1 DMPC:DMPG (w/w) were dissolved in chloroform and methanol (3:1 v/v) at 10 mg/mL, dried using a rotary evaporator and left 3 hours under high vacuum in a freeze dryer. Phospholipids were then dissolved in 20 mM Sodium phosphate – NaOH, 150 mM NaCl, pH 7.4 and hand-shaken until the formation of a cloudy solution, which was passed 19 times through a 100 nm polycarbonate membrane at 30 °C for the formation of large unilamelar vesicles (LUVs) using a mini-extruder (Avanti Polar Lipids). Phospholipid concentration was estimated according to the ammonium ferrothiocyanate method.
Experiments were conducted on a Jasco-J815 spectropolarimeter (Jasco International Co.). Spectra were acquired at room temperature from 200 to 260 nm as an average of 4 readings using a 0.1 cm path length cell, data pitch of 0.2 nm and a response time of 0.5 s. Data Scans of buffer and 2 mM DMPC and 2:1 DMPC:DMPG LUVs solutions were acquired and subtracted from each peptide data. Peptides were scanned at a concentration of 40 μM in buffer and then 50 fold excess of DMPC and 2:1 DMPC:DMPG LUVs were added, resulting in a molar ratio of 0.02 peptide/phospholipid. The spectra were converted to mean residue ellipticity and readings at [θ]222 nm were used to estimate helix percentages.

[3] = SC50 = IAP concentration that at least 50% of red blood cells remain intact, 128 µM–0.5 µM tested, PBS, 30 minutes, 37 °C, absorbance 540 nm

| Substance | Hemolytic activity (% ± SD) at 1 µM (human red blood cells) [%] | Hemolytic activity (% ± SD) at 2 µM (human red blood cells) [%] | Hemolytic activity (% ± SD) at 4 µM (human red blood cells) [%] | Hemolytic activity (% ± SD) at 8 µM (human red blood cells) [%] | Hemolytic activity (% ± SD) at 16 µM (human red blood cells) [%] | Hemolytic activity (% ± SD) at 32 µM (human red blood cells) [%] | Hemolytic activity (% ± SD) at 64 µM (human red blood cells) | Hemolytic activity of human red blood cells (%) SC50 (human red blood cells; [3]) [µM] | IC50 ([1]; concentration at which at least 50% of basidiospores germination was inhibited, read-out: Inhibitory concentration IC50, M. perniciosa basidiospores germination) [µM] | Inhibitory concentration IC95, M. perniciosa basidiospores germination ([1]; concentration at which at least 95% of basidiospores germination was inhibited) [µM] | %Hel 2:1 DMPC/DMPG [2] [%] | %Hel DMPC [2] [%] | %Hel buffer [2] [%] | Hemolytic activity (% ± SD) at 128 µM (human red blood cells) [%] | Hemolytic activity of human red blood cells (%) SC50 (human red blood cells) [µM] | Concentration that induced 50% hemolysis (human red blood cells; red cells of human) [µM] |
| --- | --- | --- | --- | --- | --- | --- | --- | --- | --- | --- | --- | --- | --- | --- | --- | --- |
| IVNHLVKLFDKGLNSIVNLR-NH2 [Tc05] | 0.11 ± 0.02 | 0.07 ± 0.01 | 0.15 ± 0.05 | 0.07 ± 0.04 | 0.50 ± 0.10 | 0.21 ± 0.09 | 0.78 ± 0.47% | >128 | 128 | 256 |  |  |  |  |  |  |
| GIVLKDLFSEKLRRYKIVIG [Tc09, IAP from Theobroma cacao, NB-ARC domain-containing disease resistance protein, putative] |  |  |  |  |  |  |  |  |  |  | 0.0 | 19.3 | 12.3 |  |  |  |
| GSLHGFMYKYLKNMVLTLF-NH2 [At01] | 0.00 ± 0.00 | 0.00 ± 0.00 | 0.00 ± 0.00 | 0.00 ± 0.00 | 0.19 ± 0.01 | 1.05 ± 0.22 | 5.04 ± 2.39% |  |  |  |  |  |  | 14.6 ± 2.14 | >128 |  |
| LIKVVNHVQYNVTLHWHGIR [Tc07, IAP from Theobroma cacao, Laccase 17] |  |  |  |  |  |  |  |  |  |  | 19.9 | 17.1 | 23.5 |  |  |  |
| RVLKDVESALRESVANWKIVIG [Tc04, IAP from Theobroma cacao, Purple acid phosphatase 3] |  |  |  |  |  |  |  |  |  |  | 36.3 | 15.8 | 14.3 |  |  |  |
| GAKLAKKQVRALGKFFSF-NH2 [At03] | 0.00 ± 0.00 | 0.00 ± 0.00 | 0.04 ± 0.01 | 0.02 ± 0.00 | 0.00 ± 0.00 | 0.03 ± 0.00 | 0.17 ± 0.08% |  |  |  |  |  |  | 0.34 ± 0.11 | >128 |  |
| GLYNFIKVLGRTVFGLYKQF-NH2 [At04] | 0.00 ± 0.00 | 0.00 ± 0.00 | 0.00 ± 0.00 | 0.09 ± 0.04 | 0.40 ± 0.10 | 0.91 ± 0.20 | 4.12 ± 1.41% |  |  |  |  |  |  | 13.8 ± 2.41 | >128 |  |
| LHRLVKLVAALLRGYASKVDTH [Tc08] | 0.11 ± 0.04 | 0.11 ± 0.09 | 0.27 ± 0.10 | 0.30 ± 0.05 | 2.00 ± 1.13 | 15.47 ± 1.58 | 28.81 ± 2.6 7% | >128 |  |  |  |  |  |  |  |  |
| VALRLAKEVIKVQQGW [Tc01, IAP from Theobroma cacao, Embryo defective 1381 isoform 2] |  |  |  |  |  |  |  |  |  |  | 64.8 | 4.5 | 5.0 |  |  |  |
| ANRLLEAYKMLLKFLGNLR-NH2 [Gr02] | 0.01 ± 0.01 | 0.38 ± 0.09 | 1.23 ± 0.05 | 4.19 ± 0.78 | 7.01 ± 3.48 | 28.33 ± 4.77 | 46.44 ± 7.63% |  |  |  |  |  |  | 68.42 ± 5.45 | 64 | 64 |
| IKLRNVLKYLFRIDVIKEDIL-NH2 [Tc03] | 0.03 ± 0.00 | 0.04 ± 0.03 | 0.00 ± 0.00 | 0.17 ± 0.04 | 0.09 ± 0.01 | 0.67 ± 0.30 | 2.29 ± 1.18% |  |  |  |  |  |  | 7.89 ± 1.44 | >128 |  |
| FFYNVIKIYGNMAGRISK-NH2 [Cs03] | 0.00 ± 0.00 | 0.02 ± 0.00 | 0.01 ± 0.00 | 0.00 ± 0.00 | 0.21 ± 0.05 | 0.99 ± 0.34 | 4.11 ± 1.22% |  |  |  |  |  |  | 14.51 ± 1.55 | >128 |  |
| KVLSKVHTLLKAVLAL-NH2 [At02] | 0.04 ± 0.00 | 0.03 ± 0.00 | 0.02 ± 0.00 | 0.00 ± 0.00 | 0.30 ± 0.16 | 2.41 ± 0.98 | 10.28 ± 4.3% |  |  |  |  |  |  | 23.10 ± 3.41 | >128 |  |
| LLDKLKRTLLSIEAVLI [Tc11, IAP from Theobroma cacao, LRR and NB-ARC domains-containing disease resistance protein] |  |  |  |  |  |  |  |  |  |  | 56.7 | 57.0 | 45.8 |  |  |  |
